Measurements published in PubChem BioAssay (NCI).
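In this assay, cells in 96-well plates receive the compound at five concentrations for 48 hours. Endpoints are linearly interpolated between the surrounding concentrations. Definition used: TGI = concentration required for complete inhibition of growth.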

Tests used:
Assay in all cases: inhibition of tumour cell growth, NCI panel, 48 h
786-0 renal = test system: 786-0 renal
A498 renal = test system: A498 renal
A549 NSCLC = test system: A549 NSCLC
ACHN renal = test system: ACHN renal
CCRF-CEM leukemia = test system: CCRF-CEM leukemia
COLO 205 colon = test system: COLO 205 colon
DLD-1 colon = test system: DLD-1 colon
EKVX NSCLC = test system: EKVX NSCLC
HCC-2998 colon = test system: HCC-2998 colon
HCT-116 colon = test system: HCT-116 colon
HCT-15 colon = test system: HCT-15 colon
HL-60(TB) leukemia = test system: HL-60(TB) leukemia
HOP-18 NSCLC = test system: HOP-18 NSCLC
HOP-62 NSCLC = test system: HOP-62 NSCLC
HT29 colon = test system: HT29 colon
IGROV1 ovarian = test system: IGROV1 ovarian
K-562 leukemia = test system: K-562 leukemia
KM12 colon = test system: KM12 colon
KM20L2 colon = test system: KM20L2 colon
LOX IMVI melanoma = test system: LOX IMVI melanoma
LXFL 529 NSCLC = test system: LXFL 529 NSCLC
M14 melanoma = test system: M14 melanoma
M19-MEL melanoma = test system: M19-MEL melanoma
MALME-3M melanoma = test system: MALME-3M melanoma
MOLT-4 leukemia = test system: MOLT-4 leukemia
NCI-H226 lung = test system: NCI-H226 lung
NCI-H23 lung = test system: NCI-H23 lung
NCI-H460 lung = test system: NCI-H460 lung
NCI-H522 lung = test system: NCI-H522 lung
OVCAR-3 ovarian = test system: OVCAR-3 ovarian
OVCAR-4 ovarian = test system: OVCAR-4 ovarian
OVCAR-5 ovarian = test system: OVCAR-5 ovarian
OVCAR-8 ovarian = test system: OVCAR-8 ovarian
RPMI-8226 leukemia = test system: RPMI-8226 leukemia
RXF 393 renal = test system: RXF 393 renal
SF-268 CNS = test system: SF-268 CNS
SK-MEL-2 melanoma = test system: SK-MEL-2 melanoma
SK-MEL-28 melanoma = test system: SK-MEL-28 melanoma
SK-MEL-5 melanoma = test system: SK-MEL-5 melanoma
SK-OV-3 ovarian = test system: SK-OV-3 ovarian
SN12C renal = test system: SN12C renal
SNB-19 CNS = test system: SNB-19 CNS
SNB-75 CNS = test system: SNB-75 CNS
SNB-78 CNS = test system: SNB-78 CNS
SW-620 colon = test system: SW-620 colon
TK-10 renal = test system: TK-10 renal
U251 CNS = test system: U251 CNS
UACC-257 melanoma = test system: UACC-257 melanoma
UACC-62 melanoma = test system: UACC-62 melanoma
UO-31 renal = test system: UO-31 renal
CAKI-1 renal = test system: CAKI-1 renal
DMS 114 small cell lung = test system: DMS 114 small cell lung
DMS 273 small cell lung = test system: DMS 273 small cell lung
SF-295 CNS = test system: SF-295 CNS
SF-539 CNS = test system: SF-539 CNS
XF 498 CNS = test system: XF 498 CNS

Measured: TGI

COC(=O)/C(=N\Nc1nc(=S)[nH]n1N)C(C#N)c1ccccc1 (stereo unspecified)
not listed: CAKI-1 renal | DMS 114 small cell lung | DMS 273 small cell lung | SF-295 CNS | SF-539 CNS | XF 498 CNS
> 100 µM: all other assays above

NC(=O)CCC(N=C(N)c1csc(C2OC(CO)C(O)C2O)n1)C(=O)O (stereo unspecified)
not listed: 786-0 renal | HCT-116 colon | HOP-18 NSCLC | HOP-62 NSCLC | M19-MEL melanoma | NCI-H226 lung | NCI-H460 lung | OVCAR-3 ovarian | SNB-19 CNS | UO-31 renal
> 100 µM: all other assays above
